In data set [1] the test system is mechanical nociceptive threshold. The data set can be described thus: Epinephrine-induced mechanical hyperalgesia, Randall-Selitto paw-withdrawal test (Example 1). The following applies: intradermal, inhibitor 1 μg plus epinephrine 100 ng, male rats.
Excerpt: The nociceptive flexion reflex (Randall-Selitto paw-withdrawal test) was quantified with a Basile Analge-symeter (Stoelting, Chicago, Ill.), which applies a linearly increasing mechanical force to the dorsum of the rat's hindpaw. The mechanical nociceptive threshold was defined as the force in grams at which the rat withdrew its paw. […] They were allowed to crawl into individual cylindrical Perspex blocks and were lightly restrained there by closing both ends of the cylinder. […] The rats were allowed to acclimatize to the restrainer for 5-10 min, after which the hindpaws were exposed to the test stimulus. Three readings were taken at 5 min intervals, and their mean was considered the baseline threshold. After each drug administration, mechanical paw-withdrawal thresholds were determined again as the mean of three readings taken 20, 25, and 30 min after injection.
Inhibitors were diluted with distilled water before intra-dermal injections into the paw using a 10 μl microsyringe (Hamilton, Reno, Nev.). Injections of peptides (1 μg/2.5 μl) were always preceded by injection of distilled water (2.5 μl) to produce hypo-osmotic shock. […] Paw-withdrawal thresholds were measured again 10, 15, and 20 min after injecting the test agent. The mean of the paw-withdrawal thresholds obtained at these three times was then taken as the mechanical nociceptive threshold at the dose of the test agent used. The effect of each dose a test agent was calculated as the percentage change from baseline.
A further data set has as its system ERK1/2. Briefly: Epinephrine-stimulated ERK1/2 phosphorylation in cultured rat DRG neurons (Western analysis). The following applies: for effect on epinephrine-induced ERK phosphorylation: 1 μM epinephrine 5 min, ICI 118,551 100 nM, U0126 10 μM, H89 1 μM, calphostin C 1 μM. Format: cell-based.
Data set [2] has as its system mechanical nociceptive threshold. The data set can be described thus: Prostaglandin E2-induced hyperalgesia in male and female rats (Example 2). The data set is classed as in vivo, rat. The text has this:
The nociceptive flexion reflex was quantified using the Randall-Selitto paw pressure device (Analgesymeter, Stoetling, Chicago, Ill., USA), which applies a linearly increasing mechanical force to the dorsum of the rat's hind paw. The mechanical nociceptive threshold was defined as the force in grams at which the rat withdrew its paw. The protocols for this procedure have been previously described (Taiwo et al., (1989) The contribution of training to sensitivity in the nociceptive paw-withdrawal test. Brain Res., 487:148-151). Rats were familiarized in the testing procedure, at 5-min intervals for a period of 1 h per day for 3 days in the week preceding the experiment, to decrease variance in nociceptive thresholds (Taiwo et al., (1989), supra). Baseline paw-withdrawal threshold was defined as the mean of six readings before test agents were injected. Each paw was treated as an independent measure (Taiwo et al., (1989), supra) and each experiment was performed on a separate group of rats. Each group of rats was treated with only one agonist and/or antagonist injected peripherally by the intradermal route. It has been shown in previous studies that these agents, which are injected using the protocol described, exert a peripheral rather than central action (Khasar et al., (1995), supra; and, Khasar et al., (1999b), supra). The dose-response relationship for the effect of epinephrine was determined over a dose range of 1 ng-1 μg. All behavioural testing was done between 10.00 and 16.00 h. The blocking agents, with and without epinephrine (Khasar et al., (1999b), supra) or prostaglandin E2 (PGE2) (Aley et al., (1998), supra; Aley & Levine, (1999), supra; and, Aley et al., (2000) Chronic hypersensitivity for inflammatory nociceptor sensitization mediated by the epsilon isozyme of protein kinase C. J. Neurosci., 20:4680-4685), were injected as described previously (Khasar et al., (1995), supra; and, Khasar et al., (1999b), supra). […]

Data set [3] shares this test system. Briefly: Epinephrine-induced hyperalgesia in gonad-intact and gonadectomized male and female rats (Example 2). Conditions: inhibitor 1 μg, epinephrine 100 ng intradermal.
Method: The nociceptive flexion reflex was quantified using the Randall-Selitto paw pressure device (Analgesymeter, Stoetling, Chicago, Ill., USA), which applies a linearly increasing mechanical force to the dorsum of the rat's hind paw. The mechanical nociceptive threshold was defined as the force in grams at which the rat withdrew its paw. […] Baseline paw-withdrawal threshold was defined as the mean of six readings before test agents were injected. […] Each group of rats was treated with only one agonist and/or antagonist injected peripherally by the intradermal route. […] All behavioural testing was done between 10.00 and 16.00 h. […] The protein kinase inhibitor was separated from the distilled water by drawing up a small air bubble (<1 μL) into the syringe after drawing up the protein kinase inhibitor but before drawing up the distilled water.
A stock solution of PGE2 (4 mg/mL) was made by dissolving it in 10% ethanol in normal saline; further dilution to 100 ng was made by addition of saline. Final concentration of ethanol was <10%. […] Stock solutions (1 μg/μL) of inhibitors were stored at −20° C. […] Inhibitors were injected at a concentration of 1 μg/2.5 μL.
Data set [4] has as its system Taxol-induced hyperalgesia. Briefly: Taxol-induced painful peripheral neuropathy, Randall-Selitto paw-withdrawal test. The data set is classed as in vivo, rat. The following applies: male and female rats; normal approximately 110 grams. The text has this: (§1) The role of Ras-MEK-ERK 1/2 cascade in painful peripheral neuropathy has been evaluated in three rodent models of common clinical conditions in which patients experience painful peripheral neuropathy. The three models are as follows: 1) Taxol® (a major cancer chemotherapy agent)-induced painful peripheral neuropathy (Dina, O. A., et al., (2001) Role of protein kinase C-epsilon and protein kinase A in a model of paclitaxel-induced painful peripheral neuropathy in the rat. Neuroscience 108:507-515); 2) vincristine (another cancer chemotherapy agent)-induced painful peripheral neuropathy (Aley, K. O., et al., (1996) Vincristine hyperalgesia in the rat: a possible modelfor painful vincristine neuropathy in humans. Neuroscience 73:259-265; Tanner, K. D., et al., (1998) Nociceptor hyper-responsiveness during vincristine-induced painful peripheral neuropathy in the rat. J. Neuroscience 18:6480-6491; Tanner, K. D., et al., (1998) Microtubule disorientation and axonal swelling in unmyelinated sensory axons during vincristine-induced painful neuropathy in rat. J. Comp. Neurol., 395:481-492; and, Tanner, K. D., et al., (2002) Altered temporal patterning of afferent activity in a rat model of vincristine-induced peripheral neuropathy (Submitted -Neuroscience).); and, 3) alcohol-induced painful peripheral neuropathy (Dina, O. A., et al., (2000) Key role for the epsilon isoform of protein kinase C in painful alcoholic neuropathy in the rat. J. Neurosci. 20:8614-8619). In all three models, inhibition of MEK by a MEK inhibitor, PD98509, produced either a moderate (Taxol and vincristine) or profound (alcohol) reversal of the painful peripheral neuropathy. In the third model, alcohol-induced painful peripheral neuropathy, a second inhibitor of the Ras-MEK-ERK 1/2 cascade, which was MEK inhibitor U0126, was also employed.
The pain threshold in normal male and female rats was approximately 110 grams, using the Randall-Selitto paw-withdrawal test (plotted as absolute change in nociceptive threshold). Following administration of Taxol, the threshold fell to approximately 70 grams.

Data set [5] relates to alcohol-induced hyperalgesia. Briefly: Alcohol-induced painful peripheral neuropathy, Randall-Selitto paw-withdrawal test. The data set is classed as in vivo, rat.
Excerpt: as §1
The pain threshold in normal rats was approximately 110 grams, using the Randall-Selitto paw-withdrawal threshold test (plotted as percentage change in nociceptive threshold). Following chronic consumption of a diet in which alcohol replaced calories, but not other nutrients, in the normal diet, the threshold fell to approximately 70 grams. […] See FIG. 13A, which illustrates results from female rats and FIG. 13B, which illustrates results from male rats.

Data set [6] has as its system mechanical nociceptive threshold. The following applies: rat, in vivo; cited from earlier work.
Data set [7] concerns vincristine-induced hyperalgesia. Briefly: Vincristine-induced painful peripheral neuropathy, Randall-Selitto paw-withdrawal test. The data set is classed as in vivo, rat. Conditions: male and female rats; normal approximately 110 grams.
Excerpt: as §1
The pain threshold in normal male and female rats was approximately 110 grams, using the Randall-Selitto paw-withdrawal test (plotted as absolute change in nociceptive threshold). Following administration of vincristine, the threshold fell to approximately 65 grams.

Entries after “also recorded” stand apart in the source; their conditions may differ.

Method for ERK1/2: Trypsin was inactivated by adding 100 μg/ml soybean trypsin inhibitor and 2.5 mg/ml MgSO4. The cells were centrifuged at 300×g for 5 min and resuspended culture media containing minimal essential medium (MEM) supplemented with 10% heat-inactivated fetal calf serum, 1×MEM vitamins, and 1000 U/ml each of penicillin and streptomycin. The culture was enriched for neurons by preplating on 100 mm culture dishes pretreated with 0.1 mg/ml poly-DL-ornithine in 15 mM sodium borate buffer. After culture for 15-20 hr, the loosely attached neuronal cells were collected and plated for 3 hr on six-well plates coated with 0.1 mg/ml poly-DL-ornithine and 1 mg/ml laminin.
After drug treatment, cells from neuron-enriched DRG cultures were collected and centrifuged at 300×g for 5 min at 4° C. […] Blots were incubated with anti-phospho-p42/44 MAP kinase antibody (diluted 1:500 in blocking buffer) overnight at 4° C. Blots were rinsed three times in PBS-T and incubated in blocking buffer containing HRP-conjugated goat anti-rabbit IgG (diluted 1:1000; Boehringer Mannheim, Indianapolis, Ind.) for 1 hr at 27° C. Immunoreactive bands were visualized by enhanced chemiluminescence (Amersham Pharmacia Biotech, Piscataway, N.J.). The membranes were then stripped of antibodies by incubation in 200 mM NaOH for 20 min at 27° C. […] After three washes in PBS-T, blots were incubated with HRP-conjugated goat anti-rabbit IgG (diluted 1:1000; Boehringer Mannheim) for 1 hr at 27° C., and immunoreactive bands were visualized by enhanced chemiluminescence and autoradiography. […] Data were normalized by dividing values obtained for phospho-ERK1 and phospho-ERK2 immunoreactivity by the value obtained for total ERK1 immunoreactivity for each sample.

With `O=S(=O)(NCCNCC=Cc1ccc(Br)cc1)c1cccc2cnccc12` [H89, N-[2-(p-bromocinnamylamino)ethyl]-5-isoquinolinesulfonamide], the “effect on epinephrine-induced mechanical hyperalgesia” value in data set [1] is reported as “did not block”. In addition, in the data set with ERK1/2, the “effect on epinephrine-induced ERK phosphorylation” value is “did not reduce; also recorded: did not block”.

In the case of `Cc1ccc(OCC(O)C(C)NC(C)C)c2c1CCC2` (stereo not drawn) [ICI 118,551], the “effect on epinephrine-induced ERK phosphorylation” value in the data set with ERK1/2 is recorded as “inhibited”. The “effect on basal ERK phosphorylation” value in the data set with ERK1/2 (unstimulated cultures) was “did not inhibit”.

Consider `CNC(=N)NCCC[C@H](N)C(=O)O` [L-NMA, NG-methyl-L-arginine], for which, in data set [2] (both sexes, gonad-intact, inhibitor 1 μg, PGE2 100 ng intradermal), the “effect on prostaglandin E2-induced hyperalgesia” value is given as “significantly blocked; also recorded: inhibited to a similar degree”. Also, the “effect on epinephrine-induced hyperalgesia” value in data set [3] (gonadectomized female rats) was “significantly antagonized”; in data set [3] (gonadectomized male rats), “significantly antagonized”; in data set [3] (intact female rats), “did not have a significant effect”; in data set [3] (intact male rats), “significantly antagonized”.

Turning to `CC(=O)O[C@H]1C(=O)[C@@]2(C)[C@H]([C@H](OC(=O)c3ccccc3)[C@]3(O)C[C@H](OC(=O)[C@H](O)[C@@H](NC(=O)c4ccccc4)c4ccccc4)C(C)=C1C3(C)C)[C@]1(OC(C)=O)CO[C@@H]1C[C@@H]2O` [Taxol], the “pain threshold following administration of Taxol” value in data set [4] is reported as “approximately 70 grams”.

Take `CCO` [alcohol]: the “threshold following chronic consumption of alcohol diet” value in data set [5] (female rats (FIG. 13A)) and in data set [5] (male rats (FIG. 13B)) was “approximately 70 grams” throughout. Also, in data set [5] (normal approximately 110 grams), the “pain threshold following chronic consumption of alcohol diet” value is recorded as “approximately 70 grams”.

As to `C=C(C)[C@@H]1CC=C(C(=O)O)CC1` [perillic acid], the “effect on epinephrine-induced mechanical hyperalgesia” value in data set [1] is on record as “reduced”.

Take `Cc1ccc(N(CC2=NCCN2)c2cccc(O)c2)cc1` [phentolamine]: the “effect on epinephrine hyperalgesia in the rat (previously demonstrated)” value in data set [6] was “not”.

Turning to `CC(C)NCC(O)COc1cccc2ccccc12` (stereo not drawn) [propranolol], the “effect on epinephrine-induced hyperalgesia” value in data set [3] (intact female rats) and in data set [3] (intact male rats) was “inhibited” throughout. In addition, in data set [6], the “effect on epinephrine hyperalgesia in the rat (previously demonstrated)” value is on record as “significantly attenuated”.

In the case of `CCCCC[C@H](O)/C=C/[C@H]1[C@H](O)CC(=O)[C@@H]1C/C=C\CCCC(=O)O` [prostaglandin E2], the “magnitude of hyperalgesia in intact female rats vs males” value in data set [2] (PGE2 100 ng) was “greater”.

For the molecule `CC[C@]1(O)C[C@H]2CN(CCc3c([nH]c4ccccc34)[C@@](C(=O)OC)(c3cc4c(cc3OC)N(C=O)[C@H]3[C@@](O)(C(=O)OC)[C@H](OC(C)=O)[C@]5(CC)C=CCN6CC[C@]43[C@@H]65)C2)C1` [vincristine], the “pain threshold following administration of vincristine” value in data set [7] is on record as “approximately 65 grams”.

For calphostin C, in the data set with ERK1/2, the “effect on epinephrine-induced ERK phosphorylation” value was “did not reduce”.

In the case of pertussis toxin, the “effect on epinephrine-induced mechanical hyperalgesia” value in data set [1] is “reduced”. For the same molecule, the “effect on epinephrine-induced phosphorylation of ERK1/2” value in the data set on ERK1/2 (pertussis toxin or 1 μM FTase I for 16 hr, then 1 μM epinephrine) is recorded as “prevented; also recorded: inhibit”.

B1: NGF: mouse 2.5 S nerve growth factor, positive control for ERK1/2 phosphorylation (protein, UniProt P01139 122-241, looked up)
Beta-nerve growth factor: SSTHPVFHMGEFSVCDSVSVWVGDKTTATDIKGKEVTVLAEVNINNSVFRQYFFETKCRASNPVESGCRGIDSKHWNSYCTTTHTFVKALTTDEKQAAWRFIRIDTACVCVLSRKATRRG
modifications: Beta-nerve growth factor
notes: mouse 2.5 S nerve growth factor, positive control for ERK1/2 phosphorylation
For the molecule B1, the “ERK1/2 phosphorylation (representative Western blot)” value in the data set with ERK1/2 (epinephrine for indicated times, NGF 50 ng/ml 5 min) was “stimulation”.

The record behind these values is US20030008807A1, “Novel signaling pathway for the production of inflammatory pain and neuropathy” (The Regents of the University of California, priority 2001, published 2003).
